Assay results published in PubChem BioAssay (NCI).
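Cultured in 96-well plates, cells were exposed to test compound for 48 hours across five concentrations. GI50 marks 50% less growth. Definition used: TGI = concentration required for complete inhibition of growth.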

Experiments:
Assay in all cases: NCI-60 cell line screen, 48 h
[1] = tested on: 786-0 renal
[2] = tested on: A498 renal
[3] = tested on: A549 NSCLC
[4] = tested on: ACHN renal
[5] = tested on: BT-549 breast
[6] = tested on: CAKI-1 renal
[7] = tested on: COLO 205 colon
[8] = tested on: DU-145 prostate
[9] = tested on: EKVX NSCLC
[10] = tested on: HCC-2998 colon
[11] = tested on: HCT-116 colon
[12] = tested on: HCT-15 colon
[13] = tested on: HL-60(TB) leukemia
[14] = tested on: HOP-62 NSCLC
[15] = tested on: HOP-92 NSCLC
[16] = tested on: HS 578T breast
[17] = tested on: IGROV1 ovarian
[18] = tested on: K-562 leukemia
[19] = tested on: LOX IMVI melanoma
[20] = tested on: M14 melanoma
[21] = tested on: MALME-3M melanoma
[22] = tested on: MCF7 breast
[23] = tested on: MDA-MB-231 breast
[24] = tested on: MDA-MB-435
[25] = tested on: MDA-MB-468 breast
[26] = tested on: MOLT-4 leukemia
[27] = tested on: NCI-H226 lung
[28] = tested on: NCI-H23 lung
[29] = tested on: NCI-H460 lung
[30] = tested on: NCI-H522 lung
[31] = tested on: NCI/ADR-RES ovarian
[32] = tested on: OVCAR-5 ovarian
[33] = tested on: OVCAR-8 ovarian
[34] = tested on: PC-3 prostate
[35] = tested on: RPMI-8226 leukemia
[36] = tested on: RXF 393 renal
[37] = tested on: SF-268 CNS
[38] = tested on: SF-295 CNS
[39] = tested on: SF-539 CNS
[40] = tested on: SK-MEL-2 melanoma
[41] = tested on: SK-MEL-28 melanoma
[42] = tested on: SK-MEL-5 melanoma
[43] = tested on: SK-OV-3 ovarian
[44] = tested on: SN12C renal
[45] = tested on: SNB-19 CNS
[46] = tested on: SNB-75 CNS
[47] = tested on: SW-620 colon
[48] = tested on: TK-10 renal
[49] = tested on: U251 CNS
[50] = tested on: UACC-257 melanoma
[51] = tested on: UACC-62 melanoma
[52] = tested on: UO-31 renal

Compound O=C(NN1C(=O)/C(=C/C=C/c2ccc([N+](=O)[O-])o2)SC1=S)c1cccc(O)c1 has a GI50 [1] of 1.62 µM, a TGI [1] of 3.02 µM and a GI50 [2] of 19.7 µM. For the same compound, the TGI [2] was 33.8 µM, the GI50 [3] was 2.92 µM and the TGI [3] was 11.6 µM. For the same compound, the GI50 [4] was 1.64 µM, the TGI [4] was 3 µM and the GI50 [5] was 0.492 µM. For the same compound, the TGI [5] was 1.79 µM, the GI50 [6] was 1.57 µM and the TGI [6] was 2.92 µM. It also gave a GI50 [7] of 1.6 µM, a TGI [7] of 3.08 µM and a GI50 [8] of 2.12 µM. The TGI [8] was 4.48 µM, the GI50 [9] was 1.49 µM and the TGI [9] was 2.9 µM. It also gave a GI50 [10] of 1.74 µM, a TGI [10] of 3.15 µM and a GI50 [11] of 0.233 µM. The TGI [11] was 0.63 µM, the GI50 [12] was 0.167 µM and the TGI [12] was 0.371 µM. The GI50 [13] was 2.12 µM, the TGI [13] was 5.49 µM and the GI50 [14] was 1.73 µM. The TGI [14] was 3.19 µM, the GI50 [15] was 1.23 µM and the TGI [15] was 2.82 µM. For the same compound, the GI50 [16] was 2.13 µM, the TGI [16] was 7.7 µM and the GI50 [17] was 1.39 µM. For the same compound, the TGI [17] was 2.69 µM, the GI50 [18] was 0.222 µM and the TGI [18] was 1.1 µM. The GI50 [19] was 0.167 µM, the TGI [19] was 0.323 µM and the GI50 [20] was 0.282 µM. For the same compound, the TGI [20] was 0.921 µM, the GI50 [21] was 0.205 µM and the TGI [21] was 0.447 µM. The GI50 [22] was 1.24 µM, the TGI [22] was 2.96 µM and the GI50 [23] was 0.253 µM. The TGI [23] was 0.737 µM, the GI50 [24] was 0.675 µM and the TGI [24] was 2.11 µM. The GI50 [25] was 1.71 µM, the TGI [25] was 3.4 µM and the GI50 [26] was 0.295 µM. It also gave a TGI [26] of 1.28 µM, a GI50 [27] of 0.393 µM and a TGI [27] of 1.58 µM. The GI50 [28] was 1.01 µM, the TGI [28] was 2.26 µM and the GI50 [29] was 1.63 µM. It also gave a TGI [29] of 3.71 µM, a GI50 [30] of 0.185 µM and a TGI [30] of 0.367 µM. For the same compound, the GI50 [31] was 1.96 µM, the TGI [31] was 4.63 µM and the GI50 [32] was 1.85 µM. It also gave a TGI [32] of 3.38 µM, a GI50 [33] of 0.571 µM and a TGI [33] of 2.54 µM. For the same compound, the GI50 [34] was 1.88 µM, the TGI [34] was 4.18 µM and the GI50 [35] was 0.387 µM. It also gave a TGI [35] of 2.19 µM, a GI50 [36] of 1.25 µM and a TGI [36] of 2.52 µM. It also gave a GI50 [37] of 1.95 µM, a TGI [37] of 4.81 µM and a GI50 [38] of 2.12 µM. It also gave a TGI [38] of 5.01 µM, a GI50 [39] of 1.58 µM and a TGI [39] of 2.95 µM. It also gave a GI50 [40] of 1.07 µM, a TGI [40] of 2.44 µM and a GI50 [41] of 1.66 µM. The TGI [41] was 3.03 µM, the GI50 [42] was 0.662 µM and the TGI [42] was 1.95 µM. The GI50 [43] was 1.91 µM, the TGI [43] was 4.31 µM and the GI50 [44] was 0.256 µM. It also gave a TGI [44] of 1.15 µM, a GI50 [45] of 1.81 µM and a TGI [45] of 3.56 µM. For the same compound, the GI50 [46] was 1.28 µM, the TGI [46] was 5.87 µM and the GI50 [47] was 0.209 µM. For the same compound, the TGI [47] was 0.485 µM, the GI50 [48] was 1.78 µM and the TGI [48] was 3.49 µM. The GI50 [49] was 1.39 µM, the TGI [49] was 2.89 µM and the GI50 [50] was 1.74 µM. The TGI [50] was 3.54 µM, the GI50 [51] was 0.587 µM and the TGI [51] was 1.93 µM. It also gave a GI50 [52] of 1.41 µM and a TGI [52] of 2.72 µM.
